Measured values: patent publication US12509438B2, “Pyrazole derivative” (Aptabio Therapeutics Inc., priority 2020, dated 2025)

Tested on: differentiated HL-60 cells
Test: ROS production induced by PMA in HL-60 cells differentiated into neutrophil cells (L-012 luminescence)
Type: cell-based, human
Conditions: Homo sapiens, HL-60, synthetic example compounds 0.5 uM, read-out: ROS production inhibitory effect
Text: (§1) In order to confirm an effect of the synthetic example compounds on ROS production from fibroblasts and specific substrate cells, ROS production was induced by stimulation of PMA (phorbol 12-myristate 13-acetate), TGF-β1, palmitate or high concentration-glucose, or the like for HL-60 cells (Korean Cell Line Bank), NHLF(normal human lung fibroblast, Lonza), LX-2 (human hepatic stellate cells, Sigma), ARPE19 (human retinal pigment epithelial cell, ATCC), KEL-FIB (Keloid fibroblast, ATCC) cells differentiated into neutrophil cells by treatment of DMSO, and the inhibitory effect of ROS production of the synthetic example compounds was observed under this condition.
HL-60 cells (human leukemia cells, ATCC) was suspended in a medium comprising 1.25% DMSO (RPMI+10% FBS) and cultured under the condition of 5% CO2, 37° C. for 6 days to induce differentiation into neutrophil cells. […] Then, PMA of […] was treated in each well comprising cells and a drug to induce production of ROS, and this ROS production was measured by observing the level of luminescence of each well using 100 μM L-012.

Structure (SMILES)	inhibition at 0.5 µM [%]
Oc1c2c(nn1-c1ccccn1)CCN(Cc1cc3ccccc3cn1)C2 [compound 79]	50 to 70
O=C(O)c1ccc(-n2nc3c(c2O)CCN(Cc2ccccc2)C3)cc1 [compound 36]	> 70
Oc1c2c(nn1-c1ccccn1)CCN(Cc1ccccc1)C2 [compound 34]	30 to 50
Oc1c2c(nn1-c1ccc(C(F)(F)F)cn1)CCN(Cc1ccccc1)C2 [compound 39]	< 30
Oc1c2c(nn1-c1ccccn1)CCCC2 [compound 1]	< 30
Oc1c2c(nn1-c1ccccc1)CCN(Cc1ccccc1)C2 [compound 40]	50 to 70
Oc1c2c(nn1-c1ccccn1)CN(Cc1cc(F)cc(F)c1)CC2 [compound 9]	50 to 70
Oc1c2c(nn1-c1ccc(C(F)(F)F)cn1)CN(Cc1ccccc1)CC2 [compound 4]	30 to 50
Oc1c2c(nn1-c1ccccn1)CN(Cc1cccc(C(F)(F)F)c1)CC2 [compound 10]	30 to 50
Oc1c2c(nn1-c1ccc(Br)cc1)CCN(Cc1ccccc1)C2 [compound 41]	50 to 70
Oc1c2c(nn1-c1ccc(Cl)cn1)CN(Cc1ccccc1)CC2 [compound 35]	50 to 70
O=S(=O)(c1ccccc1)N1CCc2c(nn(-c3ccccn3)c2O)C1 [compound 26]	50 to 70
O=C(OCc1ccc([N+](=O)[O-])cc1)N1CCc2c(nn(-c3ccccn3)c2O)C1 [compound 32]	30 to 50
Oc1c2c(nn1-c1ccccc1Cl)CCN(Cc1ccccc1)C2 [compound 42]	< 30
CCN1CCc2c(nn(-c3ccccn3)c2O)C1 [compound 15]	< 30
N#Cc1ccc(CN2CCc3nn(-c4ccc(C(F)(F)F)cn4)c(O)c3C2)cc1 [compound 76]	30 to 50
Oc1c2c(nn1-c1ccccn1)CCN(Cc1cccc(C(F)(F)F)c1)C2 [compound 77]	30 to 50
Oc1c2c(nn1-c1ccc(Br)cc1)CN(Cc1ccccc1)CC2 [compound 37]	> 70
N#Cc1ccc(CN2CCc3nn(-c4ccccn4)c(O)c3C2)cc1 [compound 75]	50 to 70
Oc1c2c(nn1-c1ccc(C(F)(F)F)cn1)CCCC2 [compound 2]	< 30
Oc1c2c(nn1-c1ccc(C(F)(F)F)cn1)CCN(Cc1cccc(C(F)(F)F)c1)C2 [compound 50]	30 to 50
Oc1c2c(nn1-c1ccccc1)CN(Cc1ccccc1)CC2 [compound 38]	> 70
C#CCN1CCc2c(nn(-c3ccccn3)c2O)C1 [compound 16]	< 30
O=C(O)c1ccc(-n2nc3c(c2O)CN(Cc2ccccc2)CC3)cc1 [compound 81]	> 70
Oc1c2c(nn1-c1ccccn1)CN(Cc1ccc(F)cc1)CC2 [compound 6]	30 to 50
Oc1c2c(nn1-c1ccccn1)CN(Cc1ccccc1)CC2 [compound 3]	50 to 70
Cc1ccc(CN2CCc3c(nn(-c4ccccn4)c3O)C2)cc1 [compound 7]	30 to 50
Oc1c2c(nn1-c1ccc(C(F)(F)F)cn1)CCN(Cc1cc3ccccc3cn1)C2 [compound 80]	50 to 70
O=C(NC1CCCCC1)N1CCc2c(nn(-c3ccccn3)c2O)C1 [compound 23]	< 30
N#Cc1ccc(CN2CCc3c(nn(-c4ccccn4)c3O)C2)cc1 [compound 8]	50 to 70

Same assay, conditions: synthetic example compounds 0.5 uM, 0.5 µM

Structure (SMILES)	ROS production inhibitory effect
Oc1c2c(nn1-c1ccc(C(F)(F)F)cn1)CCN(Cc1cccc(C(F)(F)F)c1)C2 [compound 78]	*** (***: 50 < <70%)

Tested on: LX-2 cells
Test: ROS production in LX-2 cells (L-012 or DCF-DA)
Type: cell-based, human
Conditions: FIG. 1
Text: as §1
(§2) NHLF (normal human lung fibroblast, Lonza), LX-2 (human hepatic stellate cells, Sigma), ARPE19 (human retinal pigment epithelial cell, ATCC), KEL-FIB (keloid fibroblast, ATCC) cells were suspended in a culture medium comprising 10% FBS and aliquoted in a 96 well plate, and then cultured under the condition of 5% CO2, 37° C. for 24 hours. The synthetic example compound was pretreated from 30 minutes to 1 hour, and then a ROS stimulus was treated to each well comprising cells and a drug. After additional culturing for 48 hours, the level of ROS production was confirmed by using L-012 or DCF-DA.

Structure (SMILES)	inhibition of ROS production induced by PMA
Oc1c2c(nn1-c1ccccn1)CCN(Cc1ccccc1)C2 [Synthetic example 34, 5-benzyl-2-(pyridin-2-yl)-4,5,6,7-tetrahydro-2H-pyrazolo[4,3-c]pyridin-3-ol]	inhibited ROS production

Tested on: NHLF cells
Test: ROS production in NHLF cells (L-012 or DCF-DA)
Type: cell-based, human
Conditions: FIG. 1
Text: as §1, §2

Structure (SMILES)	inhibition of ROS production induced by PMA
Oc1c2c(nn1-c1ccccn1)CCN(Cc1ccccc1)C2 [Synthetic example 34, 5-benzyl-2-(pyridin-2-yl)-4,5,6,7-tetrahydro-2H-pyrazolo[4,3-c]pyridin-3-ol]	inhibited ROS production

Tested on: bleomycin-induced pulmonary fibrosis mouse model
Test: Bleomycin-induced pulmonary fibrosis mouse model
Type: in vivo
Conditions: BLM+NIN; 100 mg/kg orally once a day for 28 days; BLM group 5.4±0.5, negative control 0.4±0.55
Experimental: As a bleomycin-induced pulmonary fibrosis mouse model, 5-week-old, C57BL/6J male mice weighing 20 g before and after were used. The experiment was progressed by dividing the experimental animals into a control group in which distilled water was orally administered (Control), a group in which pulmonary fibrosis was caused by bleomycin (BLM), an experimental group in which bleomycin was administered and in 3 weeks, as a positive control group, nintedanib of 100 mg/kg was orally administered daily (BLM+NIN), and an experimental group in which bleomycin was administered and in 3 weeks, the synthetic example compound of the present invention of 3 mg/kg was orally administered daily (BLM+Synthetic example) as 7 mice per group.
The nintedanib and synthetic example compound was orally administered once a day for 28 days. […]
Comprehensively, based on the above histological and immunological results, by quantifying with improved Ashcroft scores (modified Ashcroft scale) widely used in the pulmonary fibrosis tissue analysis field, the severity of pulmonary fibrosis of each of the synthetic example compound administration groups (BLM+Synthetic example) compared to the negative control group (control), experimental group (BLM), positive control group was evaluated. […] For the experimental result, the mean and standard deviation were calculated using SPSS ver. […]

Structure (SMILES)	improved Ashcroft score (modified Ashcroft scale)
COC(=O)c1ccc2c(c1)NC(=O)/C2=C(\Nc1ccc(N(C)C(=O)CN2CCN(C)CC2)cc1)c1ccccc1 [nintedanib]	5.0±0

Tested on: STAM mice
Test: Non-alcoholic steatohepatitis and liver fibrosis STAM mouse model
Type: in vivo
Conditions: STAM+TEL; 10 mg/kg orally once a day for 28 days; STAM+vehicle 0.93±0.36, normal control 0.29±0.06
Text: In order to confirm the therapeutic effect for non-alcoholic steatohepatitis and liver fibrosis of the synthetic example compound of the present invention, non-alcoholic steatohepatitis and liver fibrosis-induced STAM mice (6-week-old, female, SMC laborlabories Inc, Japan) were used. All the mice were maintained under a standard condition. The experiment was progressed by dividing the experimental animals into a normal control group in which distilled water was orally administered (negative control), STAM group in which non-alcoholic steatohepatitis and fibrosis were induced (vehicle control), an experimental group in which telmisartane of 10 mg/kg was orally administered daily as a STAM positive control group (STAM+TEL), and an experimental group in which the synthetic example compound of 3 or 10 mg/kg was orally administered daily (STAM+Synthetic example) as 7 mice per group. The telmisartane and synthetic example compound were orally administered once a day for 28 days.
After completing the test, the animals were anesthetized and liver tissue was extracted for each individual, and blood was taken for examination. The weight of the liver tissue was measured and it was photographed. The tissue was fixed in 10% buffered neutral formalin solution. […]

Structure (SMILES)	liver fibrosis area (Sirius red staining)
CCCc1nc2c(C)cc(-c3nc4ccccc4n3C)cc2n1Cc1ccc(-c2ccccc2C(=O)O)cc1 [telmisartane]	0.44±0.15

Same assay, conditions: STAM+TEL; 10 mg/kg orally once a day for 28 days; STAM+vehicle 4.8±0.7, normal control 0.0±0.0

Structure (SMILES)	improved NAS score
CCCc1nc2c(C)cc(-c3nc4ccccc4n3C)cc2n1Cc1ccc(-c2ccccc2C(=O)O)cc1 [telmisartane]	2.8±0.7
